Data: patent US7981893B2, “Heteroaryl compounds, compositions thereof, and methods of treatment therewith” (Signal Pharmaceuticals, LLC, priority 2006, dated 2011)

Compound | melting point
O=c1[nH]c2ncc(-c3ccc(O)cc3)nc2n1CCO [Compound 105, 1-(2-Hydroxyethyl)-6-(4-hydroxyphenyl)-1H-imidazo[4,5-b]pyrazin-2(3H)-one] | 308 to 310 °C
Cc1n[nH]cc1-c1cnc2[nH]c(=O)n(CC3CCOCC3)c2n1 [Compound 182, 6-(3-Methyl-1H-pyrazol-4-yl)-1-((tetrahydro-2H-pyran-4-yl)methyl)-1H-imidazo[4,5-b]pyrazin-2(3H)-one] | 222 to 224 °C
CC(C)(O)c1ccc(-c2cnc3[nH]c(=O)n(CC4CCOCC4)c3n2)cc1 [Compound 145, 6-(4-(2-Hydroxypropan-2-yl)phenyl)-1-((tetrahydro-2H-pyran-4-yl)methyl)-1H-imidazo[4,5-b]pyrazin-2(3H)-one] | 212 to 214 °C
CC(c1ccccc1)n1c(=O)[nH]c2ncc(-c3ccnc4ccccc34)nc21 (stereo not drawn) [Compound 70, 1-(1-phenylethyl)-6-(quinolin-4-yl)-1H-imidazo[4,5-b]pyrazin-2(3H)-one] | 252 to 254 °C
CC(C)(O)c1nc(-c2ccc(-c3cnc4[nH]c(=O)n(CC5CCOCC5)c4n3)cc2)n[nH]1 [Compound 185, 6-(4-(5-(2-Hydroxypropan-2-yl)-1H-1,2,4-triazol-3-yl)phenyl)-1-((tetrahydro-2H-pyran-4-yl)methyl)-1H-imidazo[4,5-b]pyrazin-2(3H)-one] | 249 to 253 °C
O=c1[nH]c2ncc(-c3ccc4[nH]ccc4c3)nc2n1CC1CCOCC1 [Compound 146, 6-(1H-Indol-5-yl)-1-((tetrahydro-2H-pyran-4-yl)methyl)-1H-imidazo[4,5-b]pyrazin-2(3H)-one] | 305 to 308 °C
O=c1[nH]c2ncc(-c3ccc(F)nc3)nc2n1CC1CCOCC1 [Compound 231, 6-(6-Fluoropyridin-3-yl)-1-((tetrahydro-2H-pyran-4-yl)methyl)-1H-imidazo[4,5-b]pyrazin-2(3H)-one] | 220 to 222 °C
NCc1nc(-c2ccc(-c3cnc4[nH]c(=O)n(CCC5CCOCC5)c4n3)cc2)n[nH]1 [Compound 220, 6-(4-(5-(aminomethyl)-1H-1,2,4-triazol-3-yl)phenyl)-1-(2-(tetrahydro-2H-pyran-4-yl)ethyl)-1H-imidazo[4,5-b]pyrazin-2(3H)-one] | 258 to 260 °C
Cc1cc(-c2nc[nH]n2)ccc1-c1cnc2[nH]c(=O)n(CCC3CCOCC3)c2n1 [Compound 239, 6-(2-methyl-4-(1H-1,2,4-triazol-3-yl)phenyl)-1-(2-(tetrahydro-2H-pyran-4-yl)ethyl)-1H-imidazo[4,5-b]pyrazin-2(3H)-one] | 258 to 260 °C
O=c1[nH]c2ncc(-c3ccc(-n4cccn4)cc3)nc2n1CC1CCOCC1 [Compound 192, 6-(4-(1H-Pyrazol-1-yl)phenyl)-1-((tetrahydro-2H-pyran-4-yl)methyl)-1H-imidazo[4,5-b]pyrazin-2(3H)-one] | 294 to 296 °C
O=c1[nH]c2ncc(-c3ccc(-c4nc5ccccc5[nH]4)cc3)nc2n1CC1CCOCC1 [Compound 194, 6-(4-(1H-Benzo[d]imidazol-2-yl)phenyl)-1-((tetrahydro-2H-pyran-4-yl)methyl)-1H-imidazo[4,5-b]pyrazin-2(3H)-one] | > 300 °C
Cl.O=c1[nH]c2ncc(-c3ccc(-c4nnc[nH]4)cc3)nc2n1CCN1CCCCC1 | 194 to 197 °C
Cl.O=c1[nH]c2ncc(-c3ccc(O)cc3)nc2n1CC1CCCN1 (stereo not drawn) | 178 to 180 °C
O=c1[nH]c2ncc(-c3cnc4[nH]cnc4c3)nc2n1CC1CCOCC1 [Compound 190, 6-(3H-imidazo[4,5-b]pyridin-6-yl)-1-((tetrahydro-2H-pyran-4-yl)methyl)-1H-imidazo[4,5-b]pyrazin-2(3H)-one] | 367 to 370 °C
Cn1cc(-c2cnc3[nH]c(=O)n(CC4CCOCC4)c3n2)cn1 [Compound 170, 6-(1-Methyl-1H-pyrazol-4-yl)-1-((tetrahydro-2H-pyran-4-yl)methyl)-1H-imidazo[4,5-b]pyrazin-2(3H)-one] | 224 to 226 °C
Nc1ccc(-c2cnc3[nH]c(=O)n(CC4CCOCC4)c3n2)cn1 [Compound 232, 6-(6-Aminopyridin-3-yl)-1-((tetrahydro-2H-pyran-4-yl)methyl)-1H-imidazo[4,5-b]pyrazin-2(3H)-one] | > 260 °C
COc1ccccc1-n1c(=O)[nH]c2ccc(-c3cccc(O)c3)nc21 [Compound 92, 5-(3-Hydroxyphenyl)-3-(2-methoxyphenyl)-1H-imidazo[4,5-b]pyridin-2(3H)-one] | 240 to 242 °C
COCc1nc(-c2ccc(-c3cnc4[nH]c(=O)n(CC5CCOCC5)c4n3)cc2)n[nH]1 [Compound 180, 6-(4-(5-(Methoxymethyl)-1H-1,2,4-triazol-3-yl)phenyl)-1-((tetrahydro-2H-pyran-4-yl)methyl)-1H-imidazo[4,5-b]pyrazin-2(3H)-one] | 273 to 276 °C
O=c1[nH]c2ncc(-c3ccc(-c4ncc[nH]4)cc3)nc2n1CCC1CCOCC1 [Compound 216, 6-(4-(1H-imidazol-2-yl)phenyl)-1-(2-(tetrahydro-2H-pyran-4-yl)ethyl)-1H-imidazo[4,5-b]pyrazin-2(3H)-one] | 293 to 295 °C
O=c1[nH]c2ncc(-c3ccc4[nH]cnc4c3)nc2n1CCC1CCOCC1 [Compound 227, 6-(1H-benzo[d]imidazol-5-yl)-1-(2-(tetrahydro-2H-pyran-4-yl)ethyl)-1H-imidazo[4,5-b]pyrazin-2(3H)-one] | 264 to 265 °C
COc1cccc(CN2CC(=O)Nc3ncc(-c4ccc(O)cc4)nc32)c1 [Compound 119, 6-(4-Hydroxyphenyl)-4-(3-methoxybenzyl)-3,4-dihydropyrazino[2,3-b]pyrazin-2(1H)-one] | 282 to 283 °C

Further lines, results first:

melting point | Compound
300 °C (dec.) | O=c1[nH]c2ncc(-c3ccc(O)cc3)nc2n1CC1CCNCC1 [Compound 133, 6-(4-Hydroxyphenyl)-1-(piperidin-4-ylmethyl)-1H-imidazo[4,5-b]pyrazin-2(3H)-one]
212 to 214 °C | Cc1cc(O)ccc1-c1cnc2[nH]c(=O)n(CC3CCCCC3)c2n1 [Compound 115, 1-(Cyclohexylmethyl)-6-(4-hydroxy-2-methylphenyl)-1H-imidazo[4,5-b]pyrazin-2(3H)-one]
244 to 247 °C | Cc1cc(C(=O)O)ccc1-c1cnc2[nH]c(=O)n(CC3CCCCC3)c2n1 [Compound 141, 4-(3-(Cyclohexylmethyl)-2-oxo-2,3-dihydro-1H-imidazo[4,5-b]pyrazin-5-yl)-3-methyl benzoic acid]
293 to 295 °C | NC(=O)c1ccc(-c2cnc3[nH]c(=O)n(CC4CCCCC4)c3n2)cc1 [Compound 96, 4-(3-(Cyclohexylmethyl)-2-oxo-2,3-dihydro-1H-imidazo[4,5-b]pyrazin-5-yl)benzamide]
305 to 307 °C | O=c1[nH]c2ncc(-c3cccc(-c4nc[nH]n4)c3)nc2n1CC1CCCCC1 [Compound 166, 6-(3-(1H-1,2,4-Triazol-3-yl)phenyl)-1-(cyclohexylmethyl)-1H-imidazo[4,5-b]pyrazin-2(3H)-one]
264 to 266 °C | O=c1[nH]c2ncc(-c3ccn[nH]3)nc2n1CC1CCCCC1 [Compound 125, 1-(Cyclohexylmethyl)-6-(1H-pyrazol-5-yl)-1H-imidazo[4,5-b]pyrazin-2(3H)-one]
299 to 301 °C | O=c1[nH]c2ncc(-c3cccc(-c4cn[nH]n4)c3)nc2n1CC1CCCCC1 [Compound 150, 6-(3-(2H-1,2,3-Triazol-4-yl)phenyl)-1-(cyclohexylmethyl)-1H-imidazo[4,5-b]pyrazin-2(3H)-one]
295 to 297 °C | COc1cc(-c2cnc3[nH]c(=O)n(CC4CCCCC4)c3n2)ccn1 [Compound 136, 1-(Cyclohexylmethyl)-6-(2-methoxypyridin-4-yl)-1H-imidazo[4,5-b]pyrazin-2(3H)-one]
205 °C | O=c1[nH]c2ncc(-c3cccnc3)nc2n1CC1CCCCC1 [Compound 101, 1-(Cyclohexylmethyl)-6-(pyridin-3-yl)-1H-imidazo[4,5-b]pyrazin-2(3H)-one]
292 to 294 °C | CN1CCC(Cn2c(=O)[nH]c3ncc(-c4ccc(O)cc4)nc32)CC1 [Compound 109, 6-(4-Hydroxyphenyl)-1-((1-methylpiperidin-4-yl)methyl)-1H-imidazo[4,5-b]pyrazin-2(3H)-one]
253 to 255 °C | O=c1[nH]c2ncc(-c3ccccc3)nc2n1CC1CCCCC1 [Compound 124, 1-(Cyclohexylmethyl)-6-phenyl-1H-imidazo[4,5-b]pyrazin-2(3H)-one]
359 to 363 °C | O=c1[nH]c2ncc(-c3ccc4cc[nH]c4c3)nc2n1CC1CCCCC1 [Compound 106, 1-(Cyclohexylmethyl)-6-(1H-indol-6-yl)-1H-imidazo[4,5-b]pyrazin-2(3H)-one]
256 to 258 °C | O=c1[nH]c2ncc(-c3ccc(O)cc3)nc2n1CC1CCCO1 (stereo not drawn) [Compound 165, 6-(4-Hydroxyphenyl)-1-((tetrahydrofuran-2-yl)methyl)-1H-imidazo[4,5-b]pyrazin-2(3H)-one]
284 to 287 °C | O=c1[nH]c2ncc(-c3ccc(-n4ccnc4)cc3)nc2n1CC1CCCCC1 [Compound 151, 6-(4-(1H-Imidazol-1-yl)phenyl)-1-(cyclohexylmethyl)-1H-imidazo[4,5-b]pyrazin-2(3H)-one]
315 to 318 °C | Cc1nc(-c2ccc(-c3cnc4[nH]c(=O)n(CC5CCCCC5)c4n3)cc2)n[nH]1 [Compound 159, 1-(Cyclohexylmethyl)-6-(4-(5-methyl-1H-1,2,4-triazol-3-yl)phenyl)-1H-imidazo[4,5-b]pyrazin-2(3H)-one]
267 to 269 °C | O=c1[nH]c2ncc(-c3ccncc3)nc2n1CC1CCCCC1 [Compound 98, 1-(Cyclohexylmethyl)-6-(pyridin-4-yl)-1H-imidazo[4,5-b]pyrazin-2(3H)-one]
276 to 278 °C | O=c1[nH]c2ncc(-c3ccc(-n4ccnn4)cc3)nc2n1CC1CCCCC1 [Compound 157, 6-(4-(1H-1,2,3-Triazol-1-yl)phenyl)-1-(cyclohexylmethyl)-1H-imidazo[4,5-b]pyrazin-2(3H)-one]
334 to 336 °C | O=C1Cc2ccc(-c3cnc4[nH]c(=O)n(CC5CCCCC5)c4n3)cc2N1 [Compound 140, 1-(Cyclohexylmethyl)-6-(2-oxoindolin-6-yl)-1H-imidazo[4,5-b]pyrazin-2(3H)-one]
